Measured values from patent US11931374B2, “Adenosine receptor modulators for the treatment of circadian rhythm disorders” (OXFORD UNIVERSITY INNOVATION LIMITED, priority 2016, dated 2024).
“Also recorded” adds a separate entry of the source.

Tests used:
CRE::Luc reporter = test: CRE-Luc luciferase assay in U2OS cells; type: cell-based
Procedure: At 60-80% confluence and >90% viability, the U2OS cells in the T-75 flask were washed twice with 6 ml phosphate-buffered saline (PBS) and subsequently treated with 4 ml of TrypLE™ Express trypsin replacement solution for 10 minutes. A Greiner Bio-One 96 Well Plate (white, TC treated), was then seeded at 8000 cells per well. Following 24 hours, the cells were transfected at 50-70% confluency with CRE-luc Vector generated in-house with Viafect transfection reagent at 1:4 ratio (100 ng DNA/well) following manufacturers recommendations.
24 hours after transfection, the medium in the 96 well plate was changed to a serum-free medium with 1 mM luciferin. The cells were then incubated in serum starvation conditions for 6-8 hours, this was optimised to yield the greatest signal strength and lowest noise when assayed with forskolin control. Following the incubation period, the CRE-Luc U2OS cells were treated with the appropriate drug and their luminescence values were measured after 6 hours in the BMG FLUOstar OPTIMA Microplate Reader. […] Unless stated otherwise, forskolin was used as a positive control, and 1% DMSO was used as a negative control.

Per1 = Per1 mRNA levels in U2OS cells by qPCR; type: cell-based
Procedure: (§1) Total RNA was extracted using the microRNeasy column method (Qiagen, Hilden, Germany). Quality and quantity of RNA were measured using an Agilent Bioanalyzer and a Nanodrop1000 (Thermo Fisher Scientific, Waltham, MA USA), respectively.
(§2) RNA samples were prepared as described for microarray hybridisation. cDNA was synthesized with a qScript cDNA synthesis kit (Quanta Biosciences, Gaithersburg, MD), and quantitative PCR (qPCR) was conducted with Sybr green I and an SDS7700 thermal cycler (Applied Biosystems, Foster City, CA). Relative quantification of transcript levels was done as described previously (Peirson et al., Nucleic Acids Res. 2003 Jul. 15; 31(14):e73.). The geometric mean of a minimum of three housekeeping genes was used for normalization (Gapdh, ActB, GusB and Rps9 for example).
Cells from the U2OS (HTB-96) line were obtained, tested and identified. The cells were cultured in T-75 flasks, in Dulbecco's modified Eagle medium (DMEM) supplemented with 10% foetal bovine serum (FBS) and 1% penicillin-streptomycin (P/S) at 37° C. in a humidified atmosphere at 5% CO2. The cells were subcultured every 2 to 4 days in a 1:2 to 1:6 ratio, in accordance with the ATCC recommendations. The cells were counted using a haemocytometer, and their viability in a culture was maintained at above 95%, measured with a Presto Blue exclusion assay according to the manufacturer's specifications. Cells were transfected with siRNAs (typically at 50 nM concentrations, sequences as previously listed), the CRE::Luc (pGL4.29[luc2P/CRE/Hygro] Vector, encoding Luc2P […] under the control of a strong cAMP response element (CRE) promoter containing 3 CRE elements within its sequence; Promega) reporter vector or cAMP-GLOSensor plasmid (Promega) as per manufacturer's instructions using either Lipofectamine RNAimax (Invitrogen) or Lipofectamine3000 (Invitrogen).

cJun = cJun mRNA after drug treatment; type: cell-based; conditions: 10 uM
Procedure: as §1, §2

C57Bl/6 mice = test: Re-entrainment in a jet-lag protocol; type: in vivo
Procedure: Animals were housed under a reversed 12:12 LD cycle (400 lux from white LED lamps) with food and water ad libitum. For phase-shifting studies, C57Bl/6 mice were maintained on running wheels in light tight chambers on a 12:12 LD cycle (400 lux from white LED lamps) and injected with drug at the indicated time points. The drugs were formulated in a vehicle consisting of 5% Koliphor-HS15 (Sigma-Aldrich, UK) 5% Cyclodextran (Sigma-Aldrich, UK) in 0.9% saline. This vehicle was warmed to 37° C. and the indicated drugs kept at a 100× stock in DMSO and mixed at the appropriate concentration to be administered at approximately 300 ul intraperitoneal injection (n=6 to 10). Where the time point of injection was in the dark, the procedure was conducted under dim red light. Where measuring phase-shifting, the mice were then placed in DD and allowed to free run for 14 days in DD, running wheel activity data was collected and analysed on Clocklab (Actimetrics, Wilmette, IL). […]
Re-entrainment: C57B/6 male mice (80 days or older) were maintained on running wheels in light tight chambers on a 12:12 LD cycle (100 lux from white LED lamps) and injected with drugs as above at ZT6. […] Onset of activity on each day was used to measure phase relative to the LD cycle, data analysed on Clocklab.

Per2 = Per2 mRNA within the SCN after intraperitoneal injection; type: in vivo, mice; conditions: 4 h after intraperitoneal injection
Excerpt: SCN Tissue Collection: Animals were housed under a 12:12 LD cycle for 2 weeks with food and water ad libitum. Animals then received either a drug injection with a alteration in the light dark cycle as described in the experiment and at set points following drug administration were sacrificed by cervical dislocation. Sham-treated mice not given a light pulse were dissected at each time point. Brains were removed and placed into a brain matrix (Kent Scientific, Torrington CT, USA). Per2::Luc transgenic animals (as reported in Yoo et al, Proc Natl Acad Sci USA. 2004 Apr. 13; 101(15):5339-46) were obtained from Prof Joseph Takahashi, Northwestern University. […]
as §1
RNA samples were prepared as described for microarray hybridisation. cDNA was synthesized with a qScript cDNA synthesis kit (Quanta Biosciences, Gaithersburg, MD), and quantitative PCR (qPCR) was conducted with Sybr green I and an SDS7700 thermal cycler (Applied Biosystems, Foster City, CA). Relative quantification of transcript levels was done as described previously (Peirson et al., Nucleic Acids Res. 2003 Jul. 15; 31(14):e73.). […]

SCN electrical activity = test: In vivo recording from SCN electrode implanted animals; conditions: intraperitoneal injection, 5 mg/kg
Per1/2 = test: Sleep deprivation, Per1/2 expression within the SCN; type: in vivo; conditions: sleep deprivation decreases Per1/2 expression

Nc1nc(-c2ccccc2)c2c(n1)-c1cc(OCCN3CCOCC3)ccc1C2=O [JNJ40255293, 2-amino-8-[2-(4-morpholinyl)ethoxy]-4-phenyl-5H-indeno[1,2-d]pyrimidin-5-one]
CREB-driven transcription (CRE::Luc reporter) (CRE::Luc reporter): does not increase signals from the CRE::Luc reporter | Per1 transcription (Per1; 4 h post-drug treatment): significantly increased | Per1 mRNA (Per1; U2OS cell cultures, 10 uM): Robust increases | Per1 mRNA levels (Per1; U2OS cells, 30 uM): elevated | Per1 mRNA levels / expression (Per1; U2OS cells, qPCR, concentration not given): induce the expression of Per1 and Per2 | cJun mRNA (cJun): Upregulation | re-entrainment (advance of activity onset) (C57Bl/6 mice; 5 mg/kg single intraperitoneal injection at ZT6, LD cycle advanced 6 h): shifted rapidly; also recorded: advanced entrainment more potently than Tasimelteon, KW6002 (specific A2A antagonist) or KW3902 (specific A1 antagonist) | re-entrainment, dose response (C57Bl/6 mice; jet-lag protocol, LD cycle advanced 6 h): dose responsively enhanced re-entrainment | Per2 mRNA levels within the SCN (Per2): increase | phase of SCN electrical activity (SCN electrical activity): marked phase shift | Per1/2 expression within the SCN (Per1/2): reversed
